Experimental data from patent publication US20250313533A1, “QUINOLINE CARBOXYLIC ACID ESTER COMPOUND AND PREPARATION METHOD AND USE THEREOF” (priority 2019, published 2025).

Key:
[1] = tested on: pathogenic bacteria causing black rot in Chinese cabbages; test: In vitro bactericidal activity, black rot in Chinese cabbages; assay type: cell-based, xanthomonas; conditions: Xanthomonas, read-out: inhibitory rate; for inhibition at 1 ppm: dosage 1 ppm; for inhibition at 5 ppm: dosage 5 ppm
[2] = tested on: pathogenic bacteria causing fruit blotch in watermelons; test: In vitro bactericidal activity, fruit blotch in watermelons; assay type: cell-based, acidovorax; conditions: read-out: inhibitory rate; for inhibition at 1 ppm: dosage 1 ppm; for inhibition at 5 ppm: dosage 5 ppm
[3] = tested on: stem rot in sweet potatoes; test: whole plant or invertebrate; conditions: read-out: efficacy against stem rot in sweet potatoes
black shank in potatoes = test: Living crops in vivo protective activity, potatoes (root irrigation); conditions: Solanum tuberosum, read-out: efficacy against black shank in potatoes; for pest or weed control at 5 ppm: dosage 5 ppm; for pest or weed control at 10 ppm: dosage 10 ppm
Experimental: Root irrigation was carried out on the potatoes for tests according to the designed concentration of the agents. The dosage for each plant was 200 mL and was kept consistent (also for the control). The black shank bacteria were inoculated on the second day after the application. The results were investigated according to the disease condition.

[4] = tested on: pathogenic bacteria causing fire blight in pears; test: In vitro bactericidal activity, fire blight in pears; assay type: cell-based, erwinia; conditions: Erwinia, read-out: inhibitory rate; for inhibition at 1 ppm: dosage 1 ppm; for inhibition at 5 ppm: dosage 5 ppm
[5] = tested on: pathogenic bacteria causing stem rot in sweet potatoes; test: In vitro bactericidal activity, stem rot in sweet potatoes; assay type: cell-based, dikia; conditions: read-out: inhibitory rate; for inhibition at 1 ppm: dosage 1 ppm; for inhibition at 5 ppm: dosage 5 ppm
[6] = tested on: pathogenic bacteria causing bacterial wilt in tobacco; test: whole plant or invertebrate; assay type: cell-based, ralstonia; conditions: read-out: inhibitory rate
[7] = tested on: pathogenic bacteria causing bacterial wilt in cassava; test: organism not typed; assay type: cell-based; conditions: read-out: inhibitory rate
[8] = tested on: fruit blotch in watermelons; test: whole plant or invertebrate; conditions: read-out: efficacy against fruit blotch in watermelons
[9] = tested on: indoor potted cucumber seedlings; test: Effect of improving growth and development of crops; assay type: in vivo; set-up: Rate of growth rate increase (%): concentration or dose not given beside the values; conditions: versus blank control; for Rate of chlorophyll content increase (%) / Rate of leaf area increase (%): 14 days after application; for Rate of growth rate increase (%): plant height 14 days after application; for Rate of leaf area increase (%): second leaf
Summary of the method: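 Readouts: rate of increase in height growth, leaf area and SPAD chlorophyll content. Measurements were made before compound application and again 14 days afterwards, with leaf area computed from second-leaf dimensions.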

[10] = tested on: pathogenic bacteria causing bacterial blight in rice; test: whole plant or invertebrate; assay type: cell-based, xanthomonas; conditions: read-out: inhibitory rate
bacterial blight in rice = test: whole plant or invertebrate; conditions: Oryza sativa, read-out: efficacy against bacterial blight in rice
[11] = tested on: bacterial wilt in tobacco; test: whole plant or invertebrate; conditions: Nicotiana tabacum, read-out: efficacy against bacterial wilt in tobacco
[12] = tested on: soft rot in Chinese cabbages; test: whole plant or invertebrate; conditions: 48 h, read-out: efficacy against soft rot in Chinese cabbages
[13] = tested on: pathogenic bacteria causing bacterial angular leaf spot in cucumbers; test: In vitro bactericidal activity, bacterial angular leaf spot in cucumbers; assay type: cell-based, pseudomonas; conditions: read-out: inhibitory rate; for inhibition at 1 ppm: dosage 1 ppm; for inhibition at 5 ppm: dosage 5 ppm
cucumber seedlings = test: Safety for plant growth after application; assay type: in vivo; conditions: dosage 200 ppm
Summary of the method: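 Read-outs are chlorophyll content, leaf area and the rate of increase in plant height, all measured on cucumber seedlings kept in pots indoors after application.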

[14] = tested on: pathogenic bacteria causing black shank in potatoes; test: In vitro bactericidal activity, black shank in potatoes; assay type: cell-based; conditions: read-out: inhibitory rate; for inhibition at 1 ppm: dosage 1 ppm; for inhibition at 5 ppm: dosage 5 ppm

SMILES	inhibition at 1 ppm [1]	inhibition at 5 ppm [1]	inhibition at 1 ppm [2]	inhibition at 5 ppm [2]	pest or weed control at 5 ppm [3]	pest or weed control at 10 ppm [3]	pest or weed control at 5 ppm (black shank in potatoes)	pest or weed control at 10 ppm (black shank in potatoes)	inhibition at 1 ppm [4]	inhibition at 5 ppm [4]	inhibition at 1 ppm [5]	inhibition at 5 ppm [5]	inhibition at 1 ppm [6]	inhibition at 5 ppm [6]	inhibition at 1 ppm [7]	inhibition at 5 ppm [7]	pest or weed control at 5 ppm [8]	pest or weed control at 10 ppm [8]	Rate of chlorophyll content increase (%) [9]	Rate of growth rate increase (%) [9]	further results
CCNc1cc2c(cc1F)c(=O)c(C(=O)OCCO)cn2C1CC1 [Compound 407]	≥ 90%	≥ 90%	≥ 90%	≥ 90%	≥ 90%	≥ 90%	≥ 90%	≥ 90%	≥ 90%	≥ 90%	≥ 90%	≥ 90%	≥ 90%	≥ 90%	≥ 90%	≥ 90%	≥ 90%	≥ 90%	15%	13%	Rate of leaf area increase (%) [9]: 11%; inhibition at 1 ppm [10]: ≥ 90%; inhibition at 5 ppm [10]: ≥ 90%; pest or weed control at 5 ppm (bacterial blight in rice): ≥ 90%; pest or weed control at 10 ppm (bacterial blight in rice): ≥ 90%; pest or weed control at 5 ppm [11]: ≥ 90%; pest or weed control at 10 ppm [11]: ≥ 90%; pest or weed control at 5 ppm [12]: ≥ 90%; pest or weed control at 10 ppm [12]: ≥ 90%; inhibition at 1 ppm [13]: ≥ 90%; inhibition at 5 ppm [13]: ≥ 90%; safety for plant growth (discoloration, necrosis, wilt, malformation) (cucumber seedlings): safe for plant growth; inhibition at 1 ppm [14]: ≥ 90%; inhibition at 5 ppm [14]: ≥ 90%
COCCOC(=O)c1cn(C2CC2)c2cc(N3CCCCC3)c(F)cc2c1=O [Compound 432]	≥ 90%	≥ 90%	≥ 90%	≥ 90%	≥ 90%	≥ 90%	≥ 90%	≥ 90%	≥ 90%	≥ 90%	≥ 90%	≥ 90%	≥ 90%	≥ 90%	≥ 90%	≥ 90%	≥ 90%	≥ 90%	16%	12%	Rate of leaf area increase (%) [9]: 16%; inhibition at 1 ppm [10]: ≥ 90%; inhibition at 5 ppm [10]: ≥ 90%; pest or weed control at 5 ppm (bacterial blight in rice): ≥ 90%; pest or weed control at 10 ppm (bacterial blight in rice): ≥ 90%; pest or weed control at 5 ppm [11]: ≥ 90%; pest or weed control at 10 ppm [11]: ≥ 90%; pest or weed control at 5 ppm [12]: ≥ 90%; pest or weed control at 10 ppm [12]: ≥ 90%; inhibition at 1 ppm [13]: ≥ 90%; inhibition at 5 ppm [13]: ≥ 90%; safety for plant growth (discoloration, necrosis, wilt, malformation) (cucumber seedlings): safe for plant growth; inhibition at 1 ppm [14]: ≥ 90%; inhibition at 5 ppm [14]: ≥ 90%
O=C(OCCCO)c1cn(C2CC2)c2cc(OCC(F)(F)F)c(F)cc2c1=O [Compound 329]	≥ 90%	≥ 90%	≥ 90%	≥ 90%	≥ 90%	≥ 90%	≥ 90%	≥ 90%	≥ 90%	≥ 90%	≥ 90%	≥ 90%	≥ 90%	≥ 90%	≥ 90%	≥ 90%	≥ 90%	≥ 90%	17%	13%	Rate of leaf area increase (%) [9]: 17%; inhibition at 1 ppm [10]: ≥ 90%; inhibition at 5 ppm [10]: ≥ 90%; pest or weed control at 5 ppm (bacterial blight in rice): ≥ 90%; pest or weed control at 10 ppm (bacterial blight in rice): ≥ 90%; pest or weed control at 5 ppm [11]: ≥ 90%; pest or weed control at 10 ppm [11]: ≥ 90%; pest or weed control at 5 ppm [12]: ≥ 90%; pest or weed control at 10 ppm [12]: ≥ 90%; inhibition at 1 ppm [13]: ≥ 90%; inhibition at 5 ppm [13]: ≥ 90%; safety for plant growth (discoloration, necrosis, wilt, malformation) (cucumber seedlings): safe for plant growth; inhibition at 1 ppm [14]: ≥ 90%; inhibition at 5 ppm [14]: ≥ 90%
CCOCOC(=O)c1cn(C2CC2)c2cc(Cl)c(F)cc2c1=O [Compound 144]	≥ 80%	≥ 90%	≥ 80%	≥ 90%	≥ 90%	≥ 90%	≥ 80%	≥ 90%	≥ 80%	≥ 90%	≥ 80%	≥ 90%	≥ 80%	≥ 90%	≥ 80%	≥ 90%	≥ 90%	≥ 90%	18%	10%	Rate of leaf area increase (%) [9]: 13%; inhibition at 1 ppm [10]: ≥ 80%; inhibition at 5 ppm [10]: ≥ 90%; pest or weed control at 5 ppm (bacterial blight in rice): ≥ 80%; pest or weed control at 10 ppm (bacterial blight in rice): ≥ 90%; pest or weed control at 5 ppm [11]: ≥ 90%; pest or weed control at 10 ppm [11]: ≥ 90%; pest or weed control at 5 ppm [12]: ≥ 80%; pest or weed control at 10 ppm [12]: ≥ 90%; inhibition at 1 ppm [13]: ≥ 80%; inhibition at 5 ppm [13]: ≥ 90%; safety for plant growth (discoloration, necrosis, wilt, malformation) (cucumber seedlings): safe for plant growth; inhibition at 1 ppm [14]: ≥ 80%; inhibition at 5 ppm [14]: ≥ 90%
CCOCCOC(=O)c1cn(C2CC2)c2cc(Cl)c(F)cc2c1=O [Compound 153]	≥ 90%	≥ 90%	≥ 90%	≥ 90%	≥ 90%	≥ 90%	≥ 90%	≥ 90%	≥ 90%	≥ 90%	≥ 90%	≥ 90%	≥ 90%	≥ 90%	≥ 90%	≥ 90%	≥ 90%	≥ 90%	14%	15%	Rate of leaf area increase (%) [9]: 13%; inhibition at 1 ppm [10]: ≥ 90%; inhibition at 5 ppm [10]: ≥ 90%; pest or weed control at 5 ppm (bacterial blight in rice): ≥ 90%; pest or weed control at 10 ppm (bacterial blight in rice): ≥ 90%; pest or weed control at 5 ppm [11]: ≥ 90%; pest or weed control at 10 ppm [11]: ≥ 90%; pest or weed control at 5 ppm [12]: ≥ 90%; pest or weed control at 10 ppm [12]: ≥ 90%; inhibition at 1 ppm [13]: ≥ 90%; inhibition at 5 ppm [13]: ≥ 90%; safety for plant growth (discoloration, necrosis, wilt, malformation) (cucumber seedlings): safe for plant growth; inhibition at 1 ppm [14]: ≥ 90%; inhibition at 5 ppm [14]: ≥ 90%
